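Test compounds were applied to cells in 96-well plates for 48 hours at 5 doses. TGI: concentration producing complete growth inhibition.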
How the values were obtained:
Test in all cases: NCI tumour cell line growth inhibition, 48 h
HCC-2998 colon = system: HCC-2998 colon
KM12 colon = system: KM12 colon
SN12C renal = system: SN12C renal
DU-145 prostate = system: DU-145 prostate
OVCAR-5 ovarian = system: OVCAR-5 ovarian
BT-549 breast = system: BT-549 breast

| SMILES | TGI (HCC-2998 colon) | TGI (KM12 colon) | TGI (SN12C renal) | TGI (DU-145 prostate) | TGI (OVCAR-5 ovarian) | TGI (BT-549 breast) |
| --- | --- | --- | --- | --- | --- | --- |
| COc1ccccc1NC(=S)Nc1cc(C)cc(C)n1 | > 100 µM | > 100 µM | > 100 µM | > 100 µM | > 100 µM | > 100 µM |
| O=c1[nH]nc(-c2ccccc2)n1/N=C/c1ccc([N+](=O)[O-])cc1 | > 83.5 µM | > 100 µM | > 100 µM | > 100 µM | > 100 µM | > 100 µM |
| N#CC12CNCC1CN=N2 (stereo not drawn) | > 100 µM | > 100 µM | > 100 µM | > 100 µM | > 100 µM | > 100 µM |
| CCOC(=O)c1cc2c([nH]1)c(O)cc1c2ccn1Cc1ccccc1 | 37 µM | 24.8 µM | 36.6 µM | 34.3 µM | 41.4 µM | 32.2 µM |
| CCN(CC)CCn1nc(N)c2nc3ccccc3nc21 | > 100 µM | > 100 µM | > 100 µM | – | > 100 µM | > 100 µM |
| COC(=O)CC(c1cn(S(=O)(=O)c2ccc(C)cc2)c2ccccc12)C1C[C@@H](C(=O)OC)N(C(=O)OC(C)(C)C)C1=O (stereo partly drawn) | – | > 100 µM | > 100 µM | > 100 µM | > 100 µM | > 100 µM |
| COc1cc(/C=C2/SC(c3ccccc3)N(c3ccccc3Cl)C2=O)cc(OC)c1OC (stereo not drawn) | > 100 µM | > 100 µM | 46.6 µM | > 100 µM | > 100 µM | 85.1 µM |
| O=C(O)C1CCCN(CCc2c[nH]c3ccccc23)C1 (stereo not drawn) | > 100 µM | > 100 µM | > 100 µM | > 100 µM | > 100 µM | > 100 µM |
| CCOC(=O)c1c(NC(=O)c2cccs2)sc2c1CCC2 | – | > 100 µM | > 100 µM | > 100 µM | > 100 µM | > 100 µM |
| CO/C(N)=C(\C#N)N=Cc1ccco1 | > 100 µM | > 100 µM | > 100 µM | > 100 µM | > 100 µM | > 100 µM |
| O=C1N=C(SC2OC(CO)C(O)C(O)C2O)S/C1=C\c1ccccc1 (stereo not drawn) | > 100 µM | > 100 µM | > 100 µM | > 100 µM | > 100 µM | > 100 µM |
| COC(=O)C1=C(O)C(C(=O)OC)[C@]2(O)[C@H](C(=O)OC)[C@H]1C[C@@H](c1ccc(Cl)cc1)[C@H]2C(=O)OC (stereo partly drawn) | 22 µM | 46.6 µM | 79.6 µM | 30.4 µM | 40.3 µM | 38.9 µM |
| CN(C)/N=C(/CC(O)(C(F)(F)F)C(F)(F)F)c1ccc([N+](=O)[O-])cc1 | > 100 µM | > 100 µM | > 100 µM | > 100 µM | > 100 µM | – |
| Cc1cc(C)c2c(O)c(S(=O)(=O)c3ccc(Cl)cc3)c(=O)oc2c1 | – | > 100 µM | > 100 µM | > 100 µM | > 100 µM | > 100 µM |
| O=c1[nH]nc(-c2ccccc2)n1-c1ccncc1 | > 100 µM | > 100 µM | > 100 µM | > 100 µM | > 100 µM | > 100 µM |
| CC1(C)C2CCC(CN)(C2)C1N (stereo not drawn) | > 100 µM | > 100 µM | > 100 µM | > 100 µM | > 100 µM | > 100 µM |

| SMILES | TGI (HCC-2998 colon) | TGI (KM12 colon) | TGI (SN12C renal) | TGI (DU-145 prostate) | TGI (OVCAR-5 ovarian) | TGI (BT-549 breast) |
| --- | --- | --- | --- | --- | --- | --- |
| OC1(c2ccccc2)C2CCN(CC2)C1CN1CCOCC1 (stereo not drawn) | > 100 µM | > 100 µM | > 100 µM | > 100 µM | > 100 µM | – |
| Cc1ccc(S(=O)(=O)c2ccsc2NC(=O)C(F)(F)F)cc1 | > 100 µM | > 100 µM | 66.8 µM | > 100 µM | > 100 µM | > 100 µM |
| c1ccc(-c2cn3c(nc4ccccc43)c(-c3ccccc3)n2)cc1 | > 100 µM | > 100 µM | > 100 µM | > 100 µM | > 100 µM | > 100 µM |
| O=C(O)COCC(=O)N(CCOCCN(Cc1ccccc1)C(=O)COCC(=O)O)Cc1ccccc1 | > 100 µM | > 100 µM | > 100 µM | > 100 µM | > 100 µM | > 100 µM |
| CCC(C)(C)C1CCC2c3c([nH]c4ccccc34)C3C(=O)N(c4ccc(OC)cc4)C(=O)C3C2C1 (stereo not drawn) | 40.5 µM | 12.2 µM | 6.67 µM | 28.9 µM | 45.6 µM | 42.6 µM |
| COC1(C)CP(=O)(OC(C)C)CC(C)=C1Cl (stereo not drawn) | 49.1 µM | 34 µM | 45.8 µM | 82.7 µM | 39 µM | 46.6 µM |
| O=[N+]([O-])c1ccc2c(c1)S(=O)(=O)N1Cc3ccccc3CCN21 | > 100 µM | > 100 µM | > 100 µM | > 100 µM | > 100 µM | – |
| N#Cc1c(=O)n(-c2ccccc2)c(O)c2c(N)n[nH]c12 | > 100 µM | > 100 µM | > 100 µM | > 100 µM | > 100 µM | > 100 µM |
| Nc1cccnc1NCC1(CO)CCCC1 | > 100 µM | > 100 µM | > 100 µM | > 100 µM | > 100 µM | > 100 µM |
| COc1cc(/C=N\N(C)C)cc(/C=N/N(C)C)c1O | – | > 100 µM | 52.7 µM | > 100 µM | – | 61.9 µM |
| CN1CCN(c2ccc3[nH]c(-c4cc(O)c5c(nc(CO)n5C)c4O)nc3n2)CC1 | > 100 µM | > 100 µM | 36.8 µM | > 100 µM | > 100 µM | > 100 µM |
| CC(=O)c1sc2c(c1OC(=O)c1ccco1)c(=O)n(-c1ccccc1)c(=S)n2-c1ccccc1 | – | 48.5 µM | > 100 µM | 76.9 µM | – | 62.3 µM |
| CC(=N)OC1CC2CCC1(C)C2(C)C (stereo not drawn) | > 100 µM | > 100 µM | > 100 µM | > 100 µM | > 100 µM | > 100 µM |
| OC1(c2ccc(Cl)cc2)C(N2CCCC2)c2ccccc2C2=NCCN21 (stereo not drawn) | – | 60 µM | > 100 µM | > 100 µM | > 100 µM | 65.2 µM |
| O=c1[nH]c(=O)n(CCOc2ccccc2)cc1Nc1ccccc1 | > 100 µM | > 100 µM | > 100 µM | > 100 µM | > 100 µM | – |
| O=C1c2[nH]c3ccc(Br)cc3c2CCN1Cc1ccc(Cl)cc1 | 28.3 µM | 36.1 µM | 39.9 µM | 28.3 µM | 26.2 µM | – |
